From patent US8629277B2, “Styrenyl 1,2,4-oxadiazole compounds” (Piramal Enterprises Limited, priority 2010, dated 2014)
Read-outs that look alike come from different tables or passages of the source.

Experiments:
[1] = molecular target: T1, Ba/F3 Bcr-Abl/M244V (Homo sapiens, UniProt P00519, M244V, cells depend on it); experiment: Cell proliferation and cytotoxicity CCK-8 assay; type: cell-based; conditions: mouse, 72 h
T1 construct: fused on or other part: P11274 (Breakpoint cluster region protein)

[2] = molecular target: T2, Ba/F3 Bcr-Abl/F359V (Homo sapiens, UniProt P00519, F359V, cells depend on it); experiment: Cell proliferation and cytotoxicity CCK-8 assay; type: cell-based; conditions: mouse, 72 h
T2 construct: fused on or other part: P11274 (Breakpoint cluster region protein)

[3] = molecular target: T3, Ba/F3 Bcr-Abl/H396R (Homo sapiens, UniProt P00519, H396R, cells depend on it); experiment: Cell proliferation and cytotoxicity CCK-8 assay; type: cell-based; conditions: mouse, 72 h
T3 construct: fused on or other part: P11274 (Breakpoint cluster region protein)

[4] = molecular target: T4, Ba/F3 Bcr-Abl/H396P (Homo sapiens, UniProt P00519, H396P, cells depend on it); experiment: Cell proliferation and cytotoxicity CCK-8 assay; type: cell-based; conditions: mouse, 72 h
T4 construct: fused on or other part: P11274 (Breakpoint cluster region protein)

[5] = molecular target: T5, Ba/F3 Bcr-Abl/WT (Homo sapiens, UniProt P00519); experiment: Cell proliferation and cytotoxicity CCK-8 assay; type: cell-based; conditions: imatinib sensitive cell line; CCK-8, 72 h; read-out: Inhibitory concentrations (IC50) Ba/F3 Bcr-Abl/WT
T5 construct: fused on or other part: P11274 (Breakpoint cluster region protein)
Text: (§1) Cell Proliferation and Cytotoxicity CCK-8 Assay:
(§2) Cell Counting Kit-8 (CCK-8) assay is a sensitive colorimetric assay for the determination of number of viable cells in cell proliferation and cytotoxicity assays. Cell Counting Kit-8 (CCK-8) utilizes Dojindo's highly water-soluble tetrazolium salt. The amount of the formazan dye generated by dehydrogenases in cells is directly proportional to the number of living cells.
(§3) The cell lines described in Table 1 were used to test the antiproliferative activity of the compounds of the present invention.
(§4) Cells were seeded at a density of ˜5×10^3 per well (0.09 mL) in a transparent 96-well tissue culture plate (NUNC, USA) and allowed to incubate at 37° C., 5% CO2 incubator for 2-6 h. Different concentrations of compounds of the present invention were added to the wells of the culture plate in triplicate. […] Plates were further incubated in an incubator at 37° C. in presence of 5% CO2 for 72 h. 10 μL of the CCK-8 solution was added to each well and plate was incubated for 1-4 h in the incubator. The absorbance was measured at 450 nm using a microplate reader. The percent inhibition and IC50 were calculated in comparison with control values.

[6] = tested on: Ba/F3 Bcr-Abl/WT; experiment: In-vivo efficacy in imatinib-sensitive xenograft model in SCID mice; conditions: 200 mpk b.i.d., p.o.
Method: In-vivo efficacy testing of compounds of the present invention in imatinib resistant and imatinib sensitive tumor models was carried out according to the reference Cancer Research, 2002, 62, 7149-7153.
Cell lines Ba/F3 transfectants expressing full-length wild type imatinib sensitive (Ba/F3 Bcr-Abl/WT) or mutated imatinib resistant (Ba/F3 Bcr-Abl/T315I) were used in this study. These recombinant cell lines were licensed from Dr. Brian Druker's laboratory, Howard Hughes Medical Institute, Oregon Health and Science University Cancer Institute, Portland, Oreg., USA.
Required compound was weighed and admixed with 0.5% (w/v) carboxymethylcellulose (CMC) and triturated with Tween-20 (secundum artum) with gradual addition of water to make up the final concentration. Imatinib mesylate was used as a standard.
A group of 110 Severely Combined Immune-Deficient (SCID strain-CBySmn.CB17-Prkdc^scid/J, The Jackson Laboratory, Stock #001803) male mice, 5-6 weeks old, weighing ˜20 g, were used.
Ba/F3 Bcr-Abl/WT cells and Ba/F3 Bcr-Abl/T315I cells were grown in RPMI1640 medium containing 10% fetal calf serum in 5% CO2 incubator at 37° C. Cells were pelleted by centrifugation at 1000-rpm for 10 minutes. […] Tumor size was recorded at 2-5 day intervals. […] Tumor growth in compound treated animals is calculated as T/C (Treated/Control)×100% and Growth inhibition Percent (GI %) was [100−T/C %].

[7] = molecular target: T6, Ba/F3 Bcr-Abl/E255V (Homo sapiens, UniProt P00519, E255V, cells depend on it); experiment: Cell proliferation and cytotoxicity CCK-8 assay; type: cell-based; conditions: mouse, 72 h
T6 construct: fused on or other part: P11274 (Breakpoint cluster region protein)

[8] = tested on: CRKL protein; experiment: Inhibition of phosphorylation of CRKL protein, Western blot, M351T cell line; type: cell-based; conditions: FIG. 6B
Method: Phospho-CRKL monitoring has been recognized as a prognostic marker in CML patients treated with first and second generation Bcr-Abl inhibitors (Haematologica, 2008, 93, 5, 765-769). The assay was carried out using Western blot analysis according to the reference, Analytical Biochemistry, 1981, 112, 2, 195-203, with certain modifications.
Western blot analysis was performed to decipher the mechanism of action of compounds of the present invention. […] The cells were incubated in a humidified incubator for 2-4 h at 37° C. Subsequently, cells were treated with respective concentrations of the compounds. Cells were then incubated for 72 h. Following the incubation, cells were harvested, washed with ice-cold phosphate buffered saline (PBS) and lysed with cold Cell Lytic buffer (Sigma Aldrich) supplemented with complete protease inhibitor cocktail (Roche, Germany). The protein extracts were obtained after centrifugation at 14,000 rpm at 4° C. (30 min). Aliquots of the resulting extracts were analyzed for their protein content using Bradford Reagent (Sigma) as per the manufacturer's instructions. Equivalent protein samples (70 μg) were loaded on 10% Tris-glycine gels and resolved at 100 V for 2 h in a buffered solution (24.9 mM Tris base, 250 mM glycine, 0.1% SDS (sodium dodecyl sulfate)). […]

[9] = molecular target: Ba/F3 Bcr-Abl/T315I (Homo sapiens, UniProt P00519, T315I, cells depend on it)
Text: as §1, §2, §3, §4

[10] = mouse, ba/f3 bcr-abl/t315i, 72 h
[11] = read-out: Inhibitory concentrations (IC50) Ba/F3 Bcr-Abl/T315I, imatinib resistant cell line, CCK-8, 72 h

| GI50 [9, 10] | GI50 [9, 11] | Structure (SMILES) | GI50 [1] | GI50 [2] | GI50 [3] | GI50 [4] | GI50 [5] | Tumor growth inhibition percent (% GI) Ba/F3 Bcr-Abl/WT [6] | GI50 [7] | phospho-CRKL [8] |
| --- | --- | --- | --- | --- | --- | --- | --- | --- | --- | --- |
| 2.32 ± 0.68 µM | < 10 µM | CCCc1noc(C=Cc2ccc(O)c(O)c2)n1 [Compound of Example 3, 4-[2-(3-Propyl-[1,2,4]oxadiazol-5-yl)-vinyl]-benzene-1,2-diol] | 2.1 µM | 2 ± 0.42 µM | 2.25 ± 0.77 µM | 2 ± 0.98 µM | < 10 µM | 63% | 2.1 ± 0.75 µM | inhibit |
| 1.88 ± 0.31 µM | < 10 µM | Oc1ccc(C=Cc2nc(Cc3ccccc3)no2)cc1O [Compound of Example 4, 4-[2-(3-Benzyl-[1,2,4]oxadiazol-5-yl)-vinyl]-benzene-1,2-diol] | 2.3 µM | 3 ± 0.7 µM | 3.05 ± 0.07 µM | 2.6 ± 1.2 µM | < 10 µM | 36% | 4 ± 1.4 µM |  |
